Laboratory results reported in patent US11384060B2, “Amide compounds and use thereof” (ALPHALA CO., LTD., priority 2017, dated 2022).

Tests used:
glucagon receptor (GCGR) = target: T1, glucagon receptor (GCGR) (Homo sapiens, UniProt P47871); test: I125-glucagon binding assay (competition, GCGR membrane fractions); conditions: competition with I125-glucagon 0.0625 nM, membrane fractions of GCGR overexpressed CHO-K1 cells
T1 construct: expressed in transfected cells; host or cells: CHO-K1 cells overexpressing GCGR (membrane fractions)
T1 sequence (P47871 26-477): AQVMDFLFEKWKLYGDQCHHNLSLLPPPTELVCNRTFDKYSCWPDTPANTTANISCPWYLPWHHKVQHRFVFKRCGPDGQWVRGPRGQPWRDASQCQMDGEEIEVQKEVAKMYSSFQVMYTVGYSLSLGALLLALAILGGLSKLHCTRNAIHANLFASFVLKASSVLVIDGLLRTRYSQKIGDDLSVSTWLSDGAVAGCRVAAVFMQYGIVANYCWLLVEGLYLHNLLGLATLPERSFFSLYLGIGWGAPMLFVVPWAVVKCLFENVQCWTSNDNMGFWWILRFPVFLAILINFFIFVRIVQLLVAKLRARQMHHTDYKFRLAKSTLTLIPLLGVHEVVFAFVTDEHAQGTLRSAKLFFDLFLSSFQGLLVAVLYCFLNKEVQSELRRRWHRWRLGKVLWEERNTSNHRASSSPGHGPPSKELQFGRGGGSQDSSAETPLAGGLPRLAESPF
Outline: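 Membranes from CHO-K1 cells overexpressing GCGR, 7.5 μg/well in 50 mM Tris pH 7.4 with 0.5% BSA, were preincubated 5 min with serially diluted compounds, then given 0.0625 nM final I^125-glucagon for 30 min at 25° C. Bound label was filtered on PEI-coated GF/B and counted; IC50 by non-linear regression.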

[1] = target: T2, glucagon receptor (GCGR) overexpressed CHO-K1 cells or human primary hepatocytes (Homo sapiens, UniProt P47871); test: Glucagon cAMP inhibition assay (Cisbio cAMP Dynamic 2 HTRF); type: cell-based; conditions: inhibition of glucagon (EC50 concentration) induced cAMP production
T2 construct: expressed in transfected cells; host or cells: GCGR overexpressed CHO-K1 cells or human primary hepatocytes (endogenous receptor)
T2 sequence (P47871 26-477): as above
Outline: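 GCGR-overexpressing CHO-K1 cells or human primary hepatocytes in HBSS with 0.1% BSA and 800 nM IBMX, pre-incubated 30 min with serially diluted compounds (1% DMSO final), then stimulated 30 min at room temperature with glucagon at its EC50. cAMP measured by HTRF after 60 min lysis; IC50 by non-linear regression.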

In the case of `CC[C@H](C)[C@@H](COc1ccc(-c2ccc(Cl)cc2Cl)c(F)c1)Nc1ccc(C(=O)NCCC(=O)O)cc1` [Compound 8-11, 3-(4-(((2S,3S)-1-((2′,4′-dichloro-2-fluoro-[1,1′-biphenyl]-4-yl)oxy)-3-methylpentan-2-yl)amino)benzamido)propanoic Acid], the IC50 (glucagon receptor (GCGR)) is reported as 51 nM and the “IC50 cAMP” value [1] is reported as 269.1 nM.
`CC(C)[C@@H](COc1ccc(-c2cc(Cl)cc(Cl)c2)c(F)c1)Nc1ccc(C(=O)NCCC(=O)O)cc1` [Compound 8-12, (S)-3-(4-((1-((3′,5′-dichloro-2-fluoro-[1,1′-biphenyl]-4-yl)oxy)-3-methylbutan-2-yl)amino)benzamido)propanoic Acid] was tested, and the IC50 (glucagon receptor (GCGR)) was 227 nM and the “IC50 cAMP” value [1] was 1243 nM.
For `CCCC[C@@H](COc1ccc(-c2cc3ccccc3o2)c(F)c1)Nc1ccc(C(=O)NCCC(=O)O)cc1` [Compound 8-13, (S)-3-(4-((1-(4-(benzofuran-2-yl)-3-fluorophenoxy)hexan-2-yl)amino)benzamido) propanoic Acid], the IC50 (glucagon receptor (GCGR)) was 44 nM and the “IC50 cAMP” value [1] was 84 nM.
In the case of `CC[C@H](C)[C@@H](COc1ccc(-c2ccc(C(F)(F)F)cc2)c(F)c1)Nc1ccc(C(=O)NCCC(=O)O)cc1` [Compound 8-14, 3-(4-(((2S,3S)-1-((2-fluoro-4′-(trifluoromethyl)-[1,1′-biphenyl]-4-yl)oxy)-3-methylpentan-2-yl)amino)benzamido)propanoic Acid], the IC50 (glucagon receptor (GCGR)) is reported as 251 nM and the “IC50 cAMP” value [1] is reported as 250 nM.
With `CCCC[C@@H](COc1ccc(-c2ccc(C(F)(F)F)cc2Cl)c(F)c1)Nc1ccc(C(=O)NCCC(=O)O)cc1` [Compound 8-15, (S)-3-(4-((1-((2′-chloro-2-fluor-4′-(trifluromethyl)-[1,1′-biphenyl]-4-yl)oxy)hexan-2-yl)amino)benzamido)propanoic Acid] the IC50 (glucagon receptor (GCGR)) was 59 nM and the “IC50 cAMP” value [1] was 129 nM.
With `CCCC[C@@H](COc1ccc(-c2ccc(Cl)cc2Cl)c(F)c1)Nc1ccc(C(=O)NCCC(=O)O)cc1` [Compound 8-16, (S)-3-(4-((1-((2′,4′-dichloro-2-fluoro-[1,1′-biphenyl]-4-yl)oxy)hexan-2-yl)amino)benzamido)propanoic Acid] the IC50 (glucagon receptor (GCGR)) was 89 nM and the “IC50 cAMP” value [1] was 135 nM.
In the case of `CCCC[C@@H](COc1ccc(-c2ccc(C(F)(F)F)cc2F)c(F)c1)Nc1ccc(C(=O)NCCC(=O)O)cc1` [Compound 8-17, (S)-3-(4-((1-((2,2′-difluoro-4′-(trifluoromethyl)-[1,1′-biphenyl]-4-yl)oxy)hexan-2-yl)amino)benzamido)propanoic Acid], the IC50 (glucagon receptor (GCGR)) is reported as 308 nM and the “IC50 cAMP” value [1] is reported as 227.6 nM.
In the case of `CCCC[C@@H](COc1ccc(-c2ccc(C(F)(F)F)cc2)c(F)c1)Nc1ccc(C(=O)NCCC(=O)O)cc1` [Compound 8-18, (S)-3-(4-((1-((2-fluoro-4′-(trifluoromethyl)-[1,1′-biphenyl]-4-yl)oxy)hexan-2-yl)amino)benzamido)propanoic Acid], the IC50 (glucagon receptor (GCGR)) is reported as 158 nM and the “IC50 cAMP” value [1] is reported as 153.5 nM.
With `CC(C)C[C@@H](COc1ccc(-c2ccc(Cl)cc2Cl)c(F)c1)Nc1ccc(C(=O)NCCC(=O)O)cc1` [Compound 8-19, (S)-3-(4-((1-((2′,4′-dichloro-2-fluoro-[1,1′-biphenyl]-4-yl)oxy)-4-methylpentan-2-yl)amino)benzamido)propanoic Acid] the IC50 (glucagon receptor (GCGR)) was 101 nM and the “IC50 cAMP” value [1] was 182 nM.
For `CC(C)C[C@@H](COc1ccc(-c2cc3ccccc3o2)c(F)c1)Nc1ccc(C(=O)NCCC(=O)O)cc1` [Compound 8-20, (S)-3-(4-((1-(4-(benzofuran-2-yl)-3-fluorophenoxy)-4-methylpentan-2-yl)amino)benzamido)propanoic Acid], the IC50 (glucagon receptor (GCGR)) was 83 nM and the “IC50 cAMP” value [1] was 234 nM.
With `CC(C)(C)[C@@H](COc1ccc(-c2cc3ccccc3o2)c(F)c1)Nc1ccc(C(=O)NCCC(=O)O)cc1` [Compound 8-21, (S)-3-(4-((1-(4-(benzofuran-2-yl)-3-fluorophenoxy)-3,3-dimethylbutan-2-yl)amino)benzamido)propanoic Acid] the IC50 (glucagon receptor (GCGR)) was 111 nM and the “IC50 cAMP” value [1] was 181 nM.
